Assay results from ChEMBL document CHEMBL3862008, “7-Chloro-4-aminoquinoline γ-hydroxy-γ-lactam derived-tetramates as a new family of antimalarial compounds” (Bioorg Med Chem Lett, 2016).

Tests used:
[1] = system: Plasmodium falciparum; test: Antimalarial activity against chloroquine-sensitive Plasmodium falciparum 3D7 infected in red blood cells after 72 hrs by SYBR green 1 staining based fluorometric assay; type: functional, cell-based; details: 3D7, 72 h
[2] = system: Plasmodium falciparum; test: Antimalarial activity against chloroquine-resistant Plasmodium falciparum W2 infected in red blood cells after 72 hrs by SYBR green 1 staining based fluorometric assay; type: functional, cell-based; details: W2, 72 h
[3] = Resistance index, ratio of IC50 for chloroquine-resistant Plasmodium falciparum W2 infected in red blood cells to IC50 for chloroquine-sensitive Plasmodium falciparum 3D7 infected in red blood cells; type: functional
[4] = Cytotoxicity against HUVEC assessed as decrease in cell viability at 0.01 to 50 umol/l after 24 hrs by trypan blue dye based assay; type: toxicity; details: human
[5] = Stability of the compound in pH 7.4 solution up to 48 hrs; type: physicochemical; details: buffer, pH 7.4, 48 h

Structure (SMILES)	IC50 [1] [nM]	IC50 [2] [nM]	Ratio IC50 [3]	Activity [4]	Stability [5]
O=C1C=C(OCc2ccccc2)C(O)(Cc2ccc(C(F)(F)F)cc2)N1CCCNc1ccnc2cc(Cl)ccc12 (stereo not given)	36	36	1	Non-Toxic	Stable
COC1=CC(=O)N(CCCNc2ccnc3cc(Cl)ccc23)C1(O)Cc1ccc(C(C)(C)C)cc1 (stereo not given)	91	214	2.3	–	–
COC1=CC(=O)N(CCCNc2ccnc3cc(Cl)ccc23)C1(O)Cc1ccccc1 (stereo not given)	300	827	2.8	–	–
COC1=CC(=O)N(CCN2CCN(CCNc3ccnc4cc(Cl)ccc34)CC2)C1(O)Cc1ccc(C(F)(F)F)cc1 (stereo not given)	19	16	0.8	Non-Toxic	Stable
CN(CCNc1ccnc2cc(Cl)ccc12)CCN1C(=O)C=C(OCc2ccccc2)C1(O)Cc1ccccc1 (stereo not given)	54	64	1.2	Non-Toxic	Stable
CN(CCNc1ccnc2cc(Cl)ccc12)CCN1C(=O)C=C(OCc2ccccc2)C1(O)Cc1ccc(C(F)(F)F)cc1 (stereo not given)	40	42	1	Non-Toxic	Stable
O=C1C=C(OCc2ccccc2)C(O)(Cc2ccccc2)N1CCCNc1ccnc2cc(Cl)ccc12 (stereo not given)	143	191	1.3	–	–
COC1=CC(=O)N(CCCNc2ccnc3cc(Cl)ccc23)C1(O)Cc1ccc(F)cc1 (stereo not given)	191	670	3.5	–	–
COC1=CC(=O)N(CCN(C)CCNc2ccnc3cc(Cl)ccc23)C1(O)Cc1ccc(C(F)(F)F)cc1 (stereo not given)	14	34	2.4	Non-Toxic	Stable
COC1=CC(=O)N(CCCNc2ccnc3cc(Cl)ccc23)C1(O)Cc1ccc(OC)c(OC)c1 (stereo not given)	511	760	1.5	–	–
O=C1C=C(OCc2ccccc2)C(O)(Cc2ccc(F)cc2)N1CCCNc1ccnc2cc(Cl)ccc12 (stereo not given)	42	58	1.4	Non-Toxic	Stable
